Where two headings read alike, the source gives them in different places.
Experiments:
[1] = mean ± SD, n = 3; for Stability 4℃, 5-D (%): Table S1
Experimental: The HPLC analyses were performed on an Agilent Technology 1260 infinity system (Agilent Technology Inc., Waldbronn, Germany) equipped with an Agilent ChemStation software Rev. B.04.03-SP2 (105), a binary pump, a degasser, an autosampler, a thermostatted sample reservoir, a thermostatted column compartment, and a UV-detector. A Capcell-pak C18 UG120 column (4.6 mm × 250 mm, 5 μm, Osaka Soda Co. Ltd., Osaka, Japan) was used as an analytical column. The mobile phase was composed of 10 mM NaH2PO4 (pH 1.61–1.63) and 100% ACN (78:22, v/v) with isocratic elution at pH of 2.0–2.1 using a flow rate of 1.0 mL/min. The sample reservoir and column oven were maintained at 4 °C and 25 °C, respectively. The analytes were detected using a UV detector with the wavelength set at 220 nm, and the injection volume was 25 μL.
(§1) The aqueous supernatant (approximately 100 μL) was prepared as the final sample extract after rinsing with 600 μL of chloroform.
(§2) The recovery of the sample preparation method was estimated by dividing the peak area for the pre-spiked sample by the peak area for the post-spiked sample, multiplied by 100. […] Short- and long-term stability was evaluated after storage at 4 °C for 36 h and −70 °C for 24 days. Freeze-thaw stability was assessed with three freeze-thaw cycles at −70 °C. The post-preparation stability was also examined at 4 °C for 24 h.

[2] = cited from earlier work
SARS-CoV-2 (COVID-19) = details: read-out: Half-maximal inhibitory concentration (IC50) against SARS-CoV-2; in vitro; preventing viruses' entrance into the cytoplasm; cited from earlier work
[3] = Post-preparation stability of teicoplanin and IS mixture (processed plasma extract); format: physicochemical, human; details: mean ± SD, n = 3
Experimental: as §1, §2

polymyxin B [IS]
Stability −70 °C, 24-d (%) ([1]; long-term, human plasma, IS 100 mg/L, peak area of polymyxin B2, HPLC-UV 220 nm): 112.2 ± 8.74%
Stability 4 °C, 36 h (%) ([1]; short-term, human plasma, IS 100 mg/L (polymyxin B mixture), peak area of polymyxin B2, HPLC-UV 220 nm): 96.19 ± 2.79%
Stability Freeze-Thaw (%) ([1]; three freeze-thaw cycles at −70 °C, human plasma, IS 100 mg/L, peak area of polymyxin B2, HPLC-UV): 111.5 ± 7.36%

vancomycin
Half-life [2]: ~10 h

teicoplanin
IC50 (SARS-CoV-2 (COVID-19)): 1660 nM

teicoplanin A2-2
Stability Post-preparation, 7-D (%) ([3]; Table S1, H, 500.0 mg/L): 102.58 ± 7.60%
Stability Post-preparation, 7-D (%) ([3]; Table S1, L, 7.81 mg/L): 108.56 ± 24.10%
Stability Post-preparation, 7-D (%) ([3]; Table S1, M, 62.5 mg/L): 105.94 ± 2.00%
Stability 4℃, 5-D (%) ([1]; H, 500.0 mg/L): 101.84 ± 1.59%
Stability 4℃, 5-D (%) ([1]; L, 7.81 mg/L): 100.96 ± 11.32%
